Measured values as given in patent US12404252B2, “Salt of 2-amino-2-(2-(1-decyl-1H-1,2,3-triazol-4-yl)ethyl)propane-1,3-diol, and pharmaceutical composition containing same” (NEXTGEN BIOSCIENCE CO., LTD, priority 2021, dated 2025).
Where two headings read alike, the source gives them in different places.

Columns and labels:
[1] = Hygroscopicity test by DVS; format: physicochemical; details: for DVS remark (adsorption at 90% RH): water adsorption at 90% RH
Excerpt: Dynamic vapor sorption (DVS) is a method that has been used for a long time to investigate the interactions between active pharmaceutical ingredients (APIs), and pharmaceutical preparations and water. Here, to analyze the water absorption rate of a sample at a specific temperature, measurements are made by exposing the sample to the desired relative humidity using a DVS water sorption analyzer (hygroscopicity analyzer) until the change in weight of the sample stabilizes.

[2] = system: unilateral ureteral obstruction (UUO) model; assay: Unilateral ureteral obstruction (UUO) renal fibrosis model; format: in vivo; details: UUO mice, 30 mg/kg/day orally, 2 weeks
Procedure: The antifibrotic effect of Compound 1a in renal disease was evaluated using the unilateral ureteral obstruction (UUO) model, which is a renal fibrotic disease model. Kidney fibrosis was induced by unilateral ureteral obstruction of mice, and then Compound 1a at 10, 30, and 90 mg/kg/day and the positive control substance telmisartan at 30 mg/kg/day were orally administered to the mice once a day for 2 weeks.

[3] = system: adenine-induced chronic kidney disease model; assay: Adenine-induced chronic kidney disease model; format: in vivo; details: adenine-induced CKD mice, 10 mg/kg/day orally, 3 weeks
Procedure: The antifibrotic effect of Compound 1a was evaluated using an adenine-induced chronic kidney disease model. 0.5% adenine (in 0.5% CMC) was orally administered to mice for 4 weeks to induce chronic kidney disease, and Compound 1a at 10, 30, and 90 mg/kg/day and the positive control substance telmisartan 10 mg/kg/day were administered orally to the mice for 3 weeks, followed by measurement of serum creatinine, serum BUN, and kidney hydroxyproline, and histopathology. In addition, the tubular-interstitial index value was determined based on the above measurement results.

[4] = Solubility in aqueous media (HPLC); format: physicochemical; details: same conditions as Compound 1a, some samples
Procedure: The solubility of Compound 1a prepared in Example 1 was evaluated in several different media, including pH 1.2 hydrochloric acid buffer, pH 3.0 citrate buffer, pH 4.7 acetate buffer, pH 6.8 phosphate buffer, simulated gastric fluid, fasted-state simulated intestinal fluid, fed-state simulated intestinal fluid, and water. About 2.17 mg of sample (based on the free base of Compound 1) for each medium was taken into a 2-mL transparent glass vial and […] of medium was added (constituents of the salt were considered Compound 1: counterion=1:0.5; target concentration: 2 mg/mL). The mixture was stirred using a magnetic stirrer at 250 RPM for 24 hours at 25° C. Next, the pH and appearance of the mixture were recorded and the mixture was filtered through a MultiScreen® HTS-HV 96-well plate (manufactured by Merck; 0.45-μm hydrophilic, low-protein-binding Durapore® membrane). Solubility was determined using HPLC, and a calibration curve was created by injecting a known concentration of Compound 1a. The filtered sample was injected (diluted appropriately as necessary) and the concentration of Compound 1a (mg/mL) in the filtrate was calculated from the calibration curve (taking salt coefficient into account). The analysis results are as follows.

[5] = Standard stock solution stability, 40° C./75±5% RH; format: physicochemical; details: 40° C./75% RH
Procedure: The stability of the crystalline compound was examined at 40° C./75±5% RH. Physical stability was examined through comparative XRPD analysis before and after the test, and chemical stability was examined by HPLC method. The experimental conditions used in the stability test for Compound 1a and the test results are as follows.
40° C./75±5% RH: Conditions in which the vial was open and upright.
(§1) A required amount (˜1 mg) of solid material was dissolved in 1 mL of a diluent (1:1 methanol/water), and the prepared solution was analyzed by HPLC.

[6] = pH stability and salinity stability, 40±2° C.; format: physicochemical
[7] = pH stability and salinity stability, 40±2° C.; format: physicochemical; remark: listed apart in the source
Procedure: pH and salinity stability tests for the hemifumirate salt of Compound 1 were performed at an initial target concentration of 2 mg/mL. The pH and salinity stability conditions used to evaluate the hemifumirate salt of Compound 1 and the evaluation results are as follows.
• 40±2° C.: Conditions in which the vial was capped and upright • Storage container for stability: 2-mL screw neck clear glass vial (manufactured by La-Pha-Pack) • Target concentration: ˜ 2 mg/mL (adding the sample to 1 mL of medium, followed by vortexing for 30 seconds) • 500 μL of the test mixture was dissolved in 500 μL of a diluent (1:1 methanol/water), and the prepared solution was analyzed by HPLC without filtration.

Photostability test = format: physicochemical
Procedure: For a photostability test, 10 mg of Compound 1a was exposed to 1.2 million lux hours of ultraviolet and visible light at room temperature. For an oxidation stability test, 0.2 mL of 30% H2O2 and 1 mg of Compound 1a were placed in a 2-mL vial and stored at 25° C. for up to 24 hours. The photostability and oxidation stability conditions used to evaluate the fumarate salt of Compound 1 and the evaluation results are as follows.

[8] = Standard stock solution stability, 60° C./75±5% RH; format: physicochemical; details: 2 weeks under 60° C./75±5% RH
Procedure: The stability of the crystalline compound was under 60° C./75±5% RH conditions, and the purity thereof was examined by HPLC method. The experimental conditions used in the stability test for Compound 1a and the test results are as follows.
60° C./75±5% RH: Conditions in which the vial was open and upright.
as §1

[9] = Corrosion of a sample stored together with the substance at 60° C.; format: physicochemical; details: stored together with the sample for 2 weeks at 60° C.
Procedure: FIG. 12 depicts photograph showing the results of checking the degree of corrosion of a sample after storing each of the free base of Compound 1, Compound 1a, and a hydrochloride salt of Compound 1 together with the sample under 60° C. conditions for 2 weeks.

[10] = Oxidation stability test (30% H2O2); format: physicochemical
pKa of the free base = format: physicochemical; details: natural conditions
Procedure: The method for preparing the salt of the present invention and the process of selecting the salt thereby are as follows. […] Specifically, acids that were appropriate for matching the pKa of the free base of Compound 1 described above were calculated by computer, and these acids were mainly identified as acids having a pKa of about 2 to 5.

[11] = biological target: hERG potassium ion channel (Homo sapiens, UniProt Q12809)
[12] = system: dextran sulfate sodium (DSS)-induced colitis model; assay: DSS-induced colitis mouse model, disease activity index; format: in vivo; details: DSS mice
Procedure: The effectiveness of Compound 1a against inflammatory bowel disease was evaluated using the dextran sulfate sodium (DSS)-induced colitis model. In the mouse model, inflammatory bowel disease was induced by administering DSS to mice at a concentration of 2.5% via drinking water. Mice were divided into a test group administered Compound 1a, a positive control group administered ozanimod or MTX (methotrexate), a vehicle group, and a normal control group, and each group had n=10. Compound 1, a compound of the present invention, was orally administered at doses of 5 and 10 mg/kg once a day for 7 days to the inflammatory bowel disease-induced model, and ozanimod as a positive control was administered orally at a dose of 5 mg/kg once a day, and MTX (methotrexate) as a positive control was administered intraperitoneally at a dose of 3 mg/kg three times a week.
DAI represents the total score of weight loss relative to initial weight, stool consistency, and degree of intestinal bleeding of the mouse. The criteria for calculation of DAI are shown in Table 10 below, and DAI was evaluated on days 0, 1, 2, 3, 4, 5, 6, 7, and 8.

Sequence of hERG potassium ion channel (Q12809 whole entry): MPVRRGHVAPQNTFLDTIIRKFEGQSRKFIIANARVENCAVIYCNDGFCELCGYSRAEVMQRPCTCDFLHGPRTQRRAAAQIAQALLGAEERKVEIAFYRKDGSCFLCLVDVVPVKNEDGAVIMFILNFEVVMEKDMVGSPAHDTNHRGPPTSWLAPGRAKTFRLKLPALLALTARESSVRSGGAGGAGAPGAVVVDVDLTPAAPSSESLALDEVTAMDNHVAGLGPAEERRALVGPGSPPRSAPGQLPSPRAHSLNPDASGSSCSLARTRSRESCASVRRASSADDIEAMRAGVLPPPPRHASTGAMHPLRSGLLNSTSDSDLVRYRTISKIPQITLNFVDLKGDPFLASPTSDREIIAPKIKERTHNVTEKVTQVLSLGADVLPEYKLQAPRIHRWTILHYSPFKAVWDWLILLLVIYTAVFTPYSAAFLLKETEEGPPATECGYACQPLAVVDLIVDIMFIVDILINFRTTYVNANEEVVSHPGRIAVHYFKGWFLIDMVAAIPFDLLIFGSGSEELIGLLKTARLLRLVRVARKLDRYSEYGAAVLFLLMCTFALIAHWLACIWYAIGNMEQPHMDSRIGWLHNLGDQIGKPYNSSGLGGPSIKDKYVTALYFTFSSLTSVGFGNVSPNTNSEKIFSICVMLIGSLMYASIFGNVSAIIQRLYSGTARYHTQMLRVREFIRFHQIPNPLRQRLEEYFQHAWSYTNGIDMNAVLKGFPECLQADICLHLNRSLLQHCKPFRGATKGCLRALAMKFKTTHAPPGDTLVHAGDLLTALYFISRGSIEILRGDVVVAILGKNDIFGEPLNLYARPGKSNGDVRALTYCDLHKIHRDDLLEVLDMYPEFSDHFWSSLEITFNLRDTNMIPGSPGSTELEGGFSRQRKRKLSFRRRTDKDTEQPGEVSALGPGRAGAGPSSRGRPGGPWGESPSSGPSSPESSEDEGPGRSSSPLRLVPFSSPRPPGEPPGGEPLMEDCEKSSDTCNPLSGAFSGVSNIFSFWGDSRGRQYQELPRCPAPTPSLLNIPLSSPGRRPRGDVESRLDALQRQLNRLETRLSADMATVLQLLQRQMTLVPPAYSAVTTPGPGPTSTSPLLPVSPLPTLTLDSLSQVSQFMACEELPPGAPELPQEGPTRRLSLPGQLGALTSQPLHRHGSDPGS

In the case of `CC(=O)O.CCCCCCCCCCn1cc(CCC(N)(CO)CO)nn1` [compound 4], the “DVS remark (adsorption at 90% RH)” value [1] is reported as 33.67%.

In the case of `CCCc1nc2c(C)cc(-c3nc4ccccc4n3C)cc2n1Cc1ccc(-c2ccccc2C(=O)O)cc1` [telmisartan, reference compound], the Kidney hydroxyproline [2] is reported as “statistically significantly reduced” and the “kidney fibrosis (tubular-interstitial index)” value [3] is reported as “statistically significantly decreased”.

For `CCCCCCCCCCn1cc(CCC(N)(CO)CO)nn1.O=C(O)CC(O)(CC(=O)O)C(=O)O` [compound 6], the “DVS remark (adsorption at 90% RH)” value [1] was 22.80%.

With `CCCCCCCCCCn1cc(CCC(N)(CO)CO)nn1.O=C(O)CCC(=O)O` [compound 2] the “DVS remark (adsorption at 90% RH)” value [1] was 19.42%.

With `CCCCCCCCCCn1cc(CCC(N)(CO)CO)nn1.O=C(O)CCCCC(=O)O` [compound 5] the “DVS remark (adsorption at 90% RH)” value [1] was 22.46%.

For `CCCCCCCCCCn1cc(CCC(N)(CO)CO)nn1.Cl` [Comparative Example 1, reference compound], the “appearance in aqueous media” value [4] was “undissolved suspension form in some samples”, the Purity % ([5]; 1-week) was 99.00% and the “XRPD (physical stability)” value ([5]; 1-week, listed as Hydrochloride salt of Compound 1) was “Turned into liquid”. For the same molecule, the “XRPD (physical stability)” value ([5]; 1-week, listed as hydrochloride salt of Compound 1) was “turned into a liquid phase”, the Purity % ([5]; 2-week) was 99.22% and the Purity % ([5]; Initial) was 99.34%. The “XRPD (physical stability)” value ([5]; Initial) was “Crystalline”, the Purity % ([6]; Saline (0.9% NaCl)/40° C., 1-week, listed as Hydrochloride salt of Compound 1) was 98.00% and the Purity % ([6]; Saline (0.9% NaCl)/40° C., 1-week, listed as hydrochloride salt of Compound 1) was ≤ 98%. For the same molecule, the Purity % ([6]; pH 6.8 phosphate buffer/40° C., 2-week, listed as Hydrochloride salt of Compound 1) was 97.87%, the Purity % ([6]; pH 6.8 phosphate buffer/40° C., 2-week, listed as hydrochloride salt of Compound 1) was “less than 98%” and the Purity % ([7]; Saline (0.9% NaCl)/40° C., Initial) was 99.43%. It also gave a Purity % ([7]; pH 6.8 phosphate buffer/40° C., 1-week) of 98.04%, a Purity % ([7]; pH 6.8 phosphate buffer/40° C., Initial) of 98.93% and a Purity % (Photostability test; Photostability 1.2 million lux hours exposed) of 98.75%. The Purity % (Photostability test; Photostability 1.2 million lux hours unexposed) was 99.35%, the change in appearance [8] was “turned into a liquid phase” and the “degree of corrosion of the sample” value [9] was “corrosion occurred”. For the same molecule, the Purity % ([10]; 30% H2O2 60° C. for 20 hours) was 91.23%, the “behaviour in natural conditions” value ([1]; natural conditions) was “exhibited deliquescence” and the “DVS remark (adsorption at 90% RH)” value [1] was 49.5%. The “DVS remark (adsorption at 90% RH)” value ([1]; listed as hydrochloride salt of Compound 1) was 49.5%.

In the case of `CCCCCCCCCCn1cc(CCC(N)(CO)CO)nn1` [Compound 1, 2-Amino-2-(2-(1-decyl-1H-1,2,3-triazol-4-yl)ethyl) propane-1,3-diol], the pKa (pKa of the free base) is reported as 8.12, the “compensated suppression rate (%) of hERG channel currents” value (shortened to “compensated suppression rate (%)”) ([11]; 1 μM) is reported as 9.94±1.96% and the “compensated suppression rate (%)” value ([11]; 3 μM) is reported as 13.98±4.48%. The “compensated suppression rate (%)” value ([11]; 10 μM) was 35.03±12.09%, the “compensated suppression rate (%)” value ([11]; 30 μM) was 82.62±7.31% and the decomposition rate ([10]; oxidative stress conditions, after 20 hours) was ≥ 8%.

For `CN(Cc1cnc2nc(N)nc(N)c2n1)c1ccc(C(=O)N[C@@H](CCC(=O)O)C(=O)O)cc1` [MTX, methotrexate, reference compound], the “disease activity index (DAI) compared to negative control group (vehicle)” value ([12]; 3 mg/kg intraperitoneally three times a week) was “statistically significantly decreased”.

In the case of `CCCCCCCCCCn1cc(CCC(N)(CO)CO)nn1` [Compound 1b, 2-amino-2-(2-(1-decyl-1H-1,2,3-triazol-4-yl)ethyl) propane-1,3-diol], the “hygroscopicity (DVS evaluation, in words)” value ([1]; 90% RH, listed as Example 2) is reported as “low hygroscopicity” and the “DVS remark (adsorption at 90% RH)” value ([1]; listed as Example 2) is reported as 4.563%.

With `CC(=O)O.CCCCCCCCCCn1cc(CCC(N)(CO)CO)nn1` [compound 3] the “DVS remark (adsorption at 90% RH)” value [1] was 34.33%.

With `CC(C)Oc1ccc(-c2nc(-c3cccc4c3CC[C@@H]4NCCO)no2)cc1C#N` [ozanimod, reference compound] the “disease activity index (DAI) compared to negative control group (vehicle)” value ([12]; 5 mg/kg orally once a day) was “statistically significantly decreased”.
